Test results taken from EPA's ToxValDB 9.5.
Values joined by “and” are separate entries in the source; they are usually repeats but may differ in a detail not shown here. Identical values can stand only once.

Test system: Rattus norvegicus
Details: short-term, duration: 28 days, oral, gavage, Sprague-Dawley

With `Cc1cccc(Nc2cc(Cl)nc(SCC(=O)O)n2)c1C` [[4-Chloro-6-(2,3-xylidino)-2-pyrimidinylthio]acetic acid] the LOEL (F, Clinical chemistry_Alanine aminotransferase) was 25 mg/kg-day, the LOEL (F, Clinical chemistry_Albumin) was 6.25 mg/kg-day and the LOEL (F, Clinical chemistry_Albumin/globulin ratio) was 6.25 mg/kg-day. It also gave an LOEL (F, Clinical chemistry_Alkaline phosphatase) of 6.25 mg/kg-day, an LOEL (F, Clinical chemistry_Aspartate aminotransferase) of 25 mg/kg-day and an NOEL (F, Clinical chemistry_Cholesterol) of 25 mg/kg-day. It also gave an NOEL (F, Clinical chemistry_Creatinine kinase) of 25 mg/kg-day, an NOEL (F, Clinical chemistry_Direct bilirubin) of 25 mg/kg-day and an NOEL (F, Clinical chemistry_Free thyroxine) of 25 mg/kg-day. It also gave an LOEL (F, Clinical chemistry_Globulin) of 6.25 mg/kg-day, an NOEL (F, Clinical chemistry_Indirect bilirubin) of 25 mg/kg-day and an LOEL (F, Clinical chemistry_Sorbitol dehydrogenase) of 6.25 mg/kg-day. It also gave an NOEL (F, Clinical chemistry_T bilirubin) of 25 mg/kg-day, an LOEL (F, Clinical chemistry_Testosterone) of 6.25 mg/kg-day and an LOEL (F, Clinical chemistry_Thyroid stimulating hormone) of 6.25 mg/kg-day. The NOEL (F, Clinical chemistry_Total bile acids) was 25 mg/kg-day, the NOEL (F, Clinical chemistry_Total bilirubin) was 25 mg/kg-day and the LOEL (F, Clinical chemistry_Total protein) was 12.5 mg/kg-day. The NOEL (F, Clinical chemistry_Total thyroxine) was 25 mg/kg-day, the LOEL (F, Clinical chemistry_Total triiodothyronine) was 12.5 mg/kg-day and 6.25 mg/kg-day and the NOEL (F, Clinical chemistry_Triglycerides) was 25 mg/kg-day. The LOEL (F, Gene expression_Acox1) was 6.25 mg/kg-day, the LOEL (F, Gene expression_Cyp2b1) was 6.25 mg/kg-day and the LOEL (F, Gene expression_Cyp2b2) was 6.25 mg/kg-day. For the same compound, the LOEL (F, Gene expression_Cyp4a1) was 6.25 mg/kg-day, the NOEL (F, Hematology_Erythrocytes) was 25 mg/kg-day and the NOEL (F, Hematology_Hematocrit) was 25 mg/kg-day. The NOEL (F, Hematology_Hemoglobin) was 25 mg/kg-day, the NOEL (F, Hematology_Leukocytes) was 25 mg/kg-day and the NOEL (F, Hematology_Mean corpuscular hemoglobin concentration) was 25 mg/kg-day. For the same compound, the NOEL (F, Hematology_Mean corpuscular volume) was 25 mg/kg-day, the NOEL (F, Hematology_Platelets) was 25 mg/kg-day and the NOEL (F, Hematology_Reticulocytes) was 25 mg/kg-day. The NOEL (F, Hematology_S. neutrophils) was 25 mg/kg-day, the NOEL (F, Nonneoplastic effects_Bone marrow - Hypocellularity) was 25 mg/kg-day and the NOEL (F, Nonneoplastic effects_Kidney - Papilla, necrosis) was 25 mg/kg-day. It also gave an NOEL (F, Nonneoplastic effects_Liver - Hepatocyte, Necrosis) of 25 mg/kg-day, an LOEL (F, Nonneoplastic effects_Liver - Hepatocyte, cytoplasmic alteration) of 6.25 mg/kg-day and an LOEL (F, Nonneoplastic effects_Liver - Hepatocyte, hypertrophy) of 25 mg/kg-day. For the same compound, the NOEL (F, Nonneoplastic effects_Liver - Hepatocyte, vacuolization cytoplasmic) was 25 mg/kg-day, the NOEL (F, Nonneoplastic effects_Liver - Necrosis) was 25 mg/kg-day and the NOEL (F, Nonneoplastic effects_Nose - Olfactory epithelium, degeneration) was 25 mg/kg-day. For the same compound, the NOEL (F, Nonneoplastic effects_Nose - Olfactory epithelium, hyperplasia) was 25 mg/kg-day, the NOEL (F, Nonneoplastic effects_Nose - Olfactory epithelium, inflammation, suppurative) was 25 mg/kg-day and the NOEL (F, Nonneoplastic effects_Nose - Olfactory epithelium, necrosis) was 25 mg/kg-day. For the same compound, the NOEL (F, Nonneoplastic effects_Spleen - Extramedullary hematopoiesis, decreased) was 25 mg/kg-day, the NOEL (F, Nonneoplastic effects_Stomach, forestomach - Epithelium, hyperplasia) was 25 mg/kg-day and the NOEL (F, Nonneoplastic effects_Thymus - Atrophy) was 25 mg/kg-day. It also gave an NOEL (F, Organ weights_Heart - Absolute) of 25 mg/kg-day, an NOEL (F, Organ weights_Heart - Relative) of 25 mg/kg-day and an LOEL (F, Organ weights_Liver - Absolute) of 6.25 mg/kg-day. It also gave an LOEL (F, Organ weights_Liver - Relative) of 6.25 mg/kg-day, an NOEL (F, Organ weights_Lung - Absolute) of 25 mg/kg-day and an NOEL (F, Organ weights_Lung - Relative) of 25 mg/kg-day. The NOEL (F, Organ weights_R. adrenal gland - Absolute) was 25 mg/kg-day, the NOEL (F, Organ weights_R. adrenal gland - Relative) was 25 mg/kg-day and the LOEL (F, Organ weights_R. kidney - Absolute) was 6.25 mg/kg-day. The LOEL (F, Organ weights_R. kidney - Relative) was 6.25 mg/kg-day, the NOEL (F, Organ weights_Spleen - Absolute) was 25 mg/kg-day and the NOEL (F, Organ weights_Spleen - Relative) was 25 mg/kg-day. The NOEL (F, Organ weights_Thymus - Absolute) was 25 mg/kg-day, the NOEL (F, Organ weights_Thymus - Relative) was 25 mg/kg-day and the NOEL (F, Organ weights_Thyroid gland - Absolute) was 25 mg/kg-day. The NOEL (F, Organ weights_Thyroid gland - Relative) was 25 mg/kg-day, the LOEL (F, Reproductive toxicity_Altered estrous cyclicity) was 6.25 mg/kg-day and the NOEL (F, Survival rates) was 25 mg/kg-day. The NOEL (F, body weight) was 25 mg/kg-day, the LOEL (M, Clinical chemistry_Alanine aminotransferase) was 6.25 mg/kg-day and the LOEL (M, Clinical chemistry_Albumin) was 6.25 mg/kg-day. The LOEL (M, Clinical chemistry_Albumin/globulin ratio) was 6.25 mg/kg-day, the LOEL (M, Clinical chemistry_Alkaline phosphatase) was 6.25 mg/kg-day and the LOEL (M, Clinical chemistry_Aspartate aminotransferase) was 25 mg/kg-day. The LOEL (M, Clinical chemistry_Cholesterol) was 6.25 mg/kg-day, the NOEL (M, Clinical chemistry_Creatinine kinase) was 25 mg/kg-day and the LOEL (M, Clinical chemistry_Direct bilirubin) was 25 mg/kg-day. For the same compound, the LOEL (M, Clinical chemistry_Free thyroxine) was 6.25 mg/kg-day, the LOEL (M, Clinical chemistry_Globulin) was 6.25 mg/kg-day and the NOEL (M, Clinical chemistry_Indirect bilirubin) was 25 mg/kg-day. For the same compound, the LOEL (M, Clinical chemistry_Sorbitol dehydrogenase) was 6.25 mg/kg-day, the NOEL (M, Clinical chemistry_T bilirubin) was 25 mg/kg-day and the LOEL (M, Clinical chemistry_Testosterone) was 25 mg/kg-day. For the same compound, the LOEL (M, Clinical chemistry_Thyroid stimulating hormone) was 25 mg/kg-day, the LOEL (M, Clinical chemistry_Total bile acids) was 6.25 mg/kg-day and the NOEL (M, Clinical chemistry_Total bilirubin) was 25 mg/kg-day. The LOEL (M, Clinical chemistry_Total protein) was 6.25 mg/kg-day, the LOEL (M, Clinical chemistry_Total thyroxine) was 6.25 mg/kg-day and the NOEL (M, Clinical chemistry_Total triiodothyronine) was 25 mg/kg-day. The NOEL (M, Clinical chemistry_Triglycerides) was 25 mg/kg-day, the LOEL (M, Gene expression_Acox1) was 6.25 mg/kg-day and the LOEL (M, Gene expression_Acyl-CoA oxidase) was 6.25 mg/kg-day. It also gave an LOEL (M, Gene expression_Altered sperm parameters) of 6.25 mg/kg-day, an LOEL (M, Gene expression_Cyp2b1) of 6.25 mg/kg-day and an LOEL (M, Gene expression_Cyp2b2) of 6.25 mg/kg-day. It also gave an LOEL (M, Gene expression_Cyp4a1) of 6.25 mg/kg-day, an NOEL (M, Hematology_Erythrocytes) of 25 mg/kg-day and an NOEL (M, Hematology_Hematocrit) of 25 mg/kg-day. The NOEL (M, Hematology_Hemoglobin) was 25 mg/kg-day, the NOEL (M, Hematology_Leukocytes) was 25 mg/kg-day and the NOEL (M, Hematology_Mean corpuscular hemoglobin concentration) was 25 mg/kg-day. It also gave an NOEL (M, Hematology_Mean corpuscular volume) of 25 mg/kg-day, an NOEL (M, Hematology_Platelets) of 25 mg/kg-day and an NOEL (M, Hematology_Reticulocytes) of 25 mg/kg-day. It also gave an NOEL (M, Hematology_S. neutrophils) of 25 mg/kg-day, an NOEL (M, Nonneoplastic effects_Bone marrow - Hypocellularity) of 25 mg/kg-day and an NOEL (M, Nonneoplastic effects_Epididymis - Duct, exfoliated germ cell) of 25 mg/kg-day. For the same compound, the NOEL (M, Nonneoplastic effects_Epididymis - Epithelium, apoptosis) was 25 mg/kg-day, the NOEL (M, Nonneoplastic effects_Epididymis - Hypospermia) was 25 mg/kg-day and the NOEL (M, Nonneoplastic effects_Forestomach - Epithelium, hyperplasia) was 25 mg/kg-day. For the same compound, the NOEL (M, Nonneoplastic effects_Forestomach - Inflammation, chronic active) was 25 mg/kg-day, the NOEL (M, Nonneoplastic effects_Kidney - Nephropathy, chronic progressive) was 25 mg/kg-day and the NOEL (M, Nonneoplastic effects_Kidney - Papilla, necrosis) was 25 mg/kg-day. It also gave an NOEL (M, Nonneoplastic effects_Liver - Hepatocyte, Necrosis) of 25 mg/kg-day, an LOEL (M, Nonneoplastic effects_Liver - Hepatocyte, cytoplasmic alteration) of 6.25 mg/kg-day and an LOEL (M, Nonneoplastic effects_Liver - Hepatocyte, hypertrophy) of 6.25 mg/kg-day. The NOEL (M, Nonneoplastic effects_Liver - Hepatocyte, vacuolization cytoplasmic) was 25 mg/kg-day, the NOEL (M, Nonneoplastic effects_Liver - Necrosis) was 25 mg/kg-day and the NOEL (M, Nonneoplastic effects_Lymph nodes - Mandibular, atrophy) was 25 mg/kg-day. For the same compound, the NOEL (M, Nonneoplastic effects_Lymph nodes - Mesenteric, atrophy) was 25 mg/kg-day, the NOEL (M, Nonneoplastic effects_Nose - Olfactory epithelium, degeneration) was 25 mg/kg-day and the NOEL (M, Nonneoplastic effects_Nose - Olfactory epithelium, hyperplasia) was 25 mg/kg-day. It also gave an NOEL (M, Nonneoplastic effects_Nose - Olfactory epithelium, inflammation, suppurative) of 25 mg/kg-day, an NOEL (M, Nonneoplastic effects_Nose - Olfactory epithelium, necrosis) of 25 mg/kg-day and an NOEL (M, Nonneoplastic effects_Nose - Respiratory epithelium, hyperplasia) of 25 mg/kg-day. The NOEL (M, Nonneoplastic effects_Nose - Respiratory epithelium, inflammation, chronic active) was 25 mg/kg-day, the NOEL (M, Nonneoplastic effects_Spleen - Atrophy) was 25 mg/kg-day and the NOEL (M, Nonneoplastic effects_Spleen - Extramedullary hematopoiesis, decreased) was 25 mg/kg-day. For the same compound, the NOEL (M, Nonneoplastic effects_Spleen - Extramedullary hematopoiesis, increased) was 25 mg/kg-day, the NOEL (M, Nonneoplastic effects_Stomach, forestomach - Epithelium, hyperplasia) was 25 mg/kg-day and the NOEL (M, Nonneoplastic effects_Testes - Germinal epithelium, degeneration) was 25 mg/kg-day. It also gave an NOEL (M, Nonneoplastic effects_Testes - Interstitial cell, atrophy) of 25 mg/kg-day, an NOEL (M, Nonneoplastic effects_Testes - Seminiferous tubule, spermatid retention) of 25 mg/kg-day and an NOEL (M, Nonneoplastic effects_Thymus - Atrophy) of 25 mg/kg-day. It also gave an NOEL (M, Nonneoplastic effects_Thymus - Lymphocyte, apoptosis) of 25 mg/kg-day, an NOEL (M, Nonneoplastic effects_Thyroid gland - Follicular cell hypertrophy) of 25 mg/kg-day and an LOEL (M, Organ weights_Heart - Absolute) of 25 mg/kg-day. For the same compound, the NOEL (M, Organ weights_Heart - Relative) was 25 mg/kg-day, the LOEL (M, Organ weights_Liver - Absolute) was 6.25 mg/kg-day and the LOEL (M, Organ weights_Liver - Relative) was 6.25 mg/kg-day. For the same compound, the NOEL (M, Organ weights_Lung - Absolute) was 25 mg/kg-day, the NOEL (M, Organ weights_Lung - Relative) was 25 mg/kg-day and the NOEL (M, Organ weights_R. adrenal gland - Absolute) was 25 mg/kg-day. It also gave an NOEL (M, Organ weights_R. adrenal gland - Relative) of 25 mg/kg-day, an LOEL (M, Organ weights_R. kidney - Absolute) of 6.25 mg/kg-day and an LOEL (M, Organ weights_R. kidney - Relative) of 6.25 mg/kg-day. It also gave an NOEL (M, Organ weights_R. testis - Absolute) of 25 mg/kg-day, an LOEL (M, Organ weights_Spleen - Absolute) of 6.25 mg/kg-day and an NOEL (M, Organ weights_Spleen - Relative) of 25 mg/kg-day. It also gave an NOEL (M, Organ weights_Thymus - Absolute) of 25 mg/kg-day, an NOEL (M, Organ weights_Thymus - Relative) of 25 mg/kg-day and an NOEL (M, Organ weights_Thyroid gland - Absolute) of 25 mg/kg-day. It also gave an LOEL (M, Reproductive toxicity_Altered sperm parameters) of 6.25 mg/kg-day and an NOEL (M, Survival rates) of 25 mg/kg-day.
